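Cells were grown in 96-well plates and exposed to each compound for 48 hours at five concentrations; endpoints were interpolated linearly between bracketing concentrations, or set to the highest concentration if not reached. Definition used: TGI = concentration required for complete inhibition of growth.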
Assays:
Experiment in all cases: NCI anticancer screen, dose series, 48 h
RXF 393 renal = system: RXF 393 renal
NCI-H226 lung = system: NCI-H226 lung
EKVX NSCLC = system: EKVX NSCLC
BT-549 breast = system: BT-549 breast
SN12C renal = system: SN12C renal
OVCAR-8 ovarian = system: OVCAR-8 ovarian
HL-60(TB) leukemia = system: HL-60(TB) leukemia
U251 CNS = system: U251 CNS
SR leukemia = system: SR leukemia
NCI/ADR-RES ovarian = system: NCI/ADR-RES ovarian
SK-MEL-5 melanoma = system: SK-MEL-5 melanoma
SNB-75 CNS = system: SNB-75 CNS

O=C(O)CSCc1cc2c(O)c(c1)Cc1cc(CSCC(=O)O)cc(c1O)Cc1cc(CSCC(=O)O)cc(c1O)Cc1cc(CSCC(=O)O)cc(c1O)C2
TGI (RXF 393 renal): > 100 µM | TGI (NCI-H226 lung): > 100 µM | TGI (EKVX NSCLC): > 100 µM | TGI (BT-549 breast): > 100 µM | TGI (SN12C renal): > 100 µM | TGI (OVCAR-8 ovarian): > 100 µM | TGI (HL-60(TB) leukemia): > 100 µM | TGI (U251 CNS): > 100 µM | TGI (SR leukemia): > 100 µM | TGI (NCI/ADR-RES ovarian): > 100 µM

Oc1ccc2c(c1)CCc1c-2n(CCN2CCOCC2)c2ccc(O)cc12
TGI (SK-MEL-5 melanoma): 39 µM | TGI (RXF 393 renal): > 100 µM | TGI (NCI-H226 lung): > 100 µM | TGI (EKVX NSCLC): > 100 µM | TGI (BT-549 breast): > 100 µM | TGI (SN12C renal): > 100 µM | TGI (OVCAR-8 ovarian): 57.1 µM | TGI (HL-60(TB) leukemia): > 100 µM | TGI (SNB-75 CNS): 78.1 µM | TGI (U251 CNS): > 100 µM | TGI (SR leukemia): > 100 µM | TGI (NCI/ADR-RES ovarian): 48.3 µM

CCN(CC)CCC(=O)c1ccc(Sc2ccc(F)cc2)cc1
TGI (SK-MEL-5 melanoma): 34.5 µM | TGI (RXF 393 renal): 35.1 µM | TGI (NCI-H226 lung): 39.2 µM | TGI (EKVX NSCLC): 41.8 µM | TGI (BT-549 breast): 31.6 µM | TGI (SN12C renal): 46.8 µM | TGI (OVCAR-8 ovarian): 48.1 µM | TGI (HL-60(TB) leukemia): 50.5 µM | TGI (SNB-75 CNS): 32.2 µM | TGI (U251 CNS): 31.1 µM | TGI (SR leukemia): 48.6 µM | TGI (NCI/ADR-RES ovarian): 71.1 µM

COc1cc(C(=O)/C=C/c2ccc(OCCSCCCCCCCCCCSCCOc3ccc(/C=C/C(=O)c4cc(OC)c(OC)c(OC)c4)cc3)cc2)cc(OC)c1OC
TGI (SK-MEL-5 melanoma): > 100 µM | TGI (RXF 393 renal): > 100 µM | TGI (EKVX NSCLC): > 100 µM | TGI (BT-549 breast): > 100 µM | TGI (SN12C renal): > 100 µM | TGI (OVCAR-8 ovarian): > 100 µM | TGI (HL-60(TB) leukemia): > 100 µM | TGI (SNB-75 CNS): > 100 µM | TGI (U251 CNS): > 100 µM | TGI (SR leukemia): > 100 µM | TGI (NCI/ADR-RES ovarian): > 100 µM

S=C(NNC1=NCCCCN1)Nc1ccc(Cl)cc1
TGI (SK-MEL-5 melanoma): 20.5 µM | TGI (RXF 393 renal): > 100 µM | TGI (NCI-H226 lung): > 100 µM | TGI (EKVX NSCLC): > 100 µM | TGI (BT-549 breast): > 100 µM | TGI (OVCAR-8 ovarian): > 100 µM | TGI (HL-60(TB) leukemia): > 100 µM | TGI (SNB-75 CNS): > 100 µM | TGI (U251 CNS): > 100 µM | TGI (SR leukemia): 60.9 µM | TGI (NCI/ADR-RES ovarian): > 100 µM

O=[N+]([O-])c1ccc2nc(Cl)n[n+]([O-])c2c1
TGI (SK-MEL-5 melanoma): 20.7 µM | TGI (RXF 393 renal): 28.7 µM | TGI (NCI-H226 lung): 42.2 µM | TGI (EKVX NSCLC): 39 µM | TGI (BT-549 breast): 29.7 µM | TGI (SN12C renal): 37.4 µM | TGI (OVCAR-8 ovarian): 30.7 µM | TGI (HL-60(TB) leukemia): 1.36 µM | TGI (SNB-75 CNS): 28.2 µM | TGI (U251 CNS): 31.3 µM | TGI (SR leukemia): 4.93 µM | TGI (NCI/ADR-RES ovarian): 60.1 µM

c1ccc2c(CN3CCN(Cc4c[nH]c5ccccc45)CC3)c[nH]c2c1
TGI (SK-MEL-5 melanoma): 29.1 µM | TGI (RXF 393 renal): 28.8 µM | TGI (NCI-H226 lung): 37.7 µM | TGI (EKVX NSCLC): 39.4 µM | TGI (BT-549 breast): 58.6 µM | TGI (SN12C renal): 41.9 µM | TGI (OVCAR-8 ovarian): 37.6 µM | TGI (HL-60(TB) leukemia): 39.3 µM | TGI (SNB-75 CNS): 30.2 µM | TGI (U251 CNS): 29.3 µM | TGI (SR leukemia): 44.8 µM | TGI (NCI/ADR-RES ovarian): 58 µM

CCCCc1ccc(Nc2nc(Cl)c3ncn(COCCOC(C)=O)c3n2)cc1
TGI (SK-MEL-5 melanoma): 30.9 µM | TGI (RXF 393 renal): 38.2 µM | TGI (NCI-H226 lung): 50.7 µM | TGI (EKVX NSCLC): 20.3 µM | TGI (BT-549 breast): 35.8 µM | TGI (SN12C renal): 39.8 µM | TGI (OVCAR-8 ovarian): 32.6 µM | TGI (HL-60(TB) leukemia): 45.6 µM | TGI (SNB-75 CNS): 44.3 µM | TGI (U251 CNS): 35 µM | TGI (SR leukemia): 53.8 µM | TGI (NCI/ADR-RES ovarian): 35.7 µM

C=CCNC(=S)N=Nc1c(O)n(CN2CCOCC2)c2ccc([N+](=O)[O-])cc12
TGI (SK-MEL-5 melanoma): 84.6 µM | TGI (RXF 393 renal): > 100 µM | TGI (NCI-H226 lung): > 100 µM | TGI (EKVX NSCLC): > 100 µM | TGI (BT-549 breast): > 100 µM | TGI (SN12C renal): > 100 µM | TGI (OVCAR-8 ovarian): > 100 µM | TGI (HL-60(TB) leukemia): > 100 µM | TGI (SNB-75 CNS): 88.3 µM | TGI (U251 CNS): > 100 µM | TGI (NCI/ADR-RES ovarian): > 100 µM

CCCC(=O)Nc1cc(/C=C/C(=O)N2CC(CCl)c3c2cc(OCc2ccccc2)c2[nH]cc(C)c32)n(C)c1 (stereo not given)
TGI (SK-MEL-5 melanoma): 0.131 µM | TGI (RXF 393 renal): 0.0852 µM | TGI (NCI-H226 lung): 0.941 µM | TGI (EKVX NSCLC): 0.635 µM | TGI (BT-549 breast): 3.14 µM | TGI (SN12C renal): > 25 µM | TGI (OVCAR-8 ovarian): 0.202 µM | TGI (HL-60(TB) leukemia): 0.26 µM | TGI (SNB-75 CNS): 0.381 µM | TGI (U251 CNS): > 9.21 µM | TGI (SR leukemia): 0.0722 µM | TGI (NCI/ADR-RES ovarian): 0.182 µM

CCCC(=O)NC(Nc1cc(C)ccn1)(C(=O)OCC)C(F)(F)F (stereo not given)
TGI (SK-MEL-5 melanoma): > 100 µM | TGI (RXF 393 renal): > 100 µM | TGI (NCI-H226 lung): > 100 µM | TGI (EKVX NSCLC): > 100 µM | TGI (BT-549 breast): > 100 µM | TGI (SN12C renal): > 100 µM | TGI (OVCAR-8 ovarian): > 100 µM | TGI (HL-60(TB) leukemia): > 100 µM | TGI (SNB-75 CNS): > 100 µM | TGI (U251 CNS): > 100 µM | TGI (SR leukemia): > 100 µM | TGI (NCI/ADR-RES ovarian): > 100 µM

O=C1NC(=S)N/C1=C\c1cc2c(=O)c3ccccc3sc2s1
TGI (SK-MEL-5 melanoma): > 100 µM | TGI (RXF 393 renal): > 100 µM | TGI (NCI-H226 lung): > 100 µM | TGI (EKVX NSCLC): > 100 µM | TGI (BT-549 breast): > 100 µM | TGI (SN12C renal): > 100 µM | TGI (OVCAR-8 ovarian): > 100 µM | TGI (HL-60(TB) leukemia): > 100 µM | TGI (SNB-75 CNS): 72 µM | TGI (U251 CNS): > 100 µM | TGI (SR leukemia): > 100 µM | TGI (NCI/ADR-RES ovarian): > 100 µM

C=C1CCCC2[C@](C)(CC3=C(Cl)C(=O)C=C(OC)C3=O)C(C)CC[C@]12C (stereo not given in full)
TGI (SK-MEL-5 melanoma): 12.5 µM | TGI (RXF 393 renal): 12.1 µM | TGI (NCI-H226 lung): 14.7 µM | TGI (EKVX NSCLC): 5.06 µM | TGI (BT-549 breast): 11.4 µM | TGI (SN12C renal): 12.5 µM | TGI (OVCAR-8 ovarian): 9.78 µM | TGI (HL-60(TB) leukemia): 10.3 µM | TGI (U251 CNS): 11.2 µM | TGI (SR leukemia): 13.6 µM | TGI (NCI/ADR-RES ovarian): 33.2 µM

O=C1c2cccnc2S(=O)(=O)N1c1ccc(Oc2ccccc2)cc1
TGI (RXF 393 renal): > 100 µM | TGI (NCI-H226 lung): > 100 µM | TGI (EKVX NSCLC): > 100 µM | TGI (BT-549 breast): > 100 µM | TGI (SN12C renal): > 100 µM | TGI (OVCAR-8 ovarian): > 100 µM | TGI (HL-60(TB) leukemia): > 100 µM | TGI (SNB-75 CNS): > 100 µM | TGI (U251 CNS): > 100 µM | TGI (SR leukemia): > 100 µM | TGI (NCI/ADR-RES ovarian): > 100 µM

CC1=NN(C(=O)c2ccccc2O)C(=O)/C1=C/c1cccc(O)c1
TGI (SK-MEL-5 melanoma): > 100 µM | TGI (NCI-H226 lung): 83.2 µM | TGI (EKVX NSCLC): > 100 µM | TGI (BT-549 breast): > 100 µM | TGI (SN12C renal): > 100 µM | TGI (OVCAR-8 ovarian): > 100 µM | TGI (HL-60(TB) leukemia): > 100 µM | TGI (SNB-75 CNS): > 100 µM | TGI (U251 CNS): > 100 µM | TGI (SR leukemia): > 100 µM | TGI (NCI/ADR-RES ovarian): > 100 µM

COC(=O)c1c(C)cccc1C1CN=NC12Cc1ccccc1C2=O (stereo not given)
TGI (SK-MEL-5 melanoma): > 100 µM | TGI (RXF 393 renal): > 100 µM | TGI (NCI-H226 lung): > 100 µM | TGI (EKVX NSCLC): > 100 µM | TGI (BT-549 breast): > 100 µM | TGI (SN12C renal): > 100 µM | TGI (OVCAR-8 ovarian): > 100 µM | TGI (HL-60(TB) leukemia): > 100 µM | TGI (SNB-75 CNS): > 100 µM | TGI (U251 CNS): > 100 µM | TGI (SR leukemia): > 100 µM | TGI (NCI/ADR-RES ovarian): > 100 µM

c1cnn(C23C4C5C6C4C2C6C53)c1 (stereo not given)
TGI (SK-MEL-5 melanoma): > 100 µM | TGI (NCI-H226 lung): > 100 µM | TGI (EKVX NSCLC): > 100 µM | TGI (BT-549 breast): > 100 µM | TGI (SN12C renal): > 100 µM | TGI (OVCAR-8 ovarian): > 100 µM | TGI (HL-60(TB) leukemia): > 100 µM | TGI (SNB-75 CNS): > 100 µM | TGI (U251 CNS): > 100 µM | TGI (SR leukemia): > 100 µM | TGI (NCI/ADR-RES ovarian): > 100 µM

CCCCCC1CC=CC(=O)O1 (stereo not given)
TGI (SK-MEL-5 melanoma): 26.8 µM | TGI (RXF 393 renal): 23.1 µM | TGI (EKVX NSCLC): 20.6 µM | TGI (BT-549 breast): 33.7 µM | TGI (SN12C renal): 21.2 µM | TGI (OVCAR-8 ovarian): 22.2 µM | TGI (HL-60(TB) leukemia): > 100 µM | TGI (U251 CNS): 17.2 µM | TGI (SR leukemia): 31.6 µM | TGI (NCI/ADR-RES ovarian): 25.6 µM
